Data on eight molecules can be found in patent US20250064799A1, “ORAL FORMULATIONS OF LEVOSIMENDAN FOR TREATING PULMONARY HYPERTENSION WITH HEART FAILURE WITH PRESERVED EJECTION FRACTION” (Tenax Therapeutics, Inc., priority 2021, published 2025).

Several values for one entry are separate records, joined by “and”; a condition that tells them apart may be missing. Equal entries are not always repeated.

Data set [1] relates to patients with HFpEF. The settings on record: long term treatment, 216 patients; cited from earlier work.
Data set [2] has as its system PH-HFpEF patients. The settings on record: after 12 weeks, 52 patients; cited from earlier work.
Data set [3] deals with HFpEF patients. The settings on record: inhaled 3 times a day for 4 weeks; cited from earlier work.
Data set [4] relates to HFpEF, HFrEF, or PH-HFpEF patients. The settings on record: empagliflozin alone; cited from earlier work.
For data set [5] the following is noted: heart failure subjects; cited from earlier work.
For data set [6], the system named is phosphodiesterase-3 (PDE3). The settings on record: cited from earlier work.
The test system of data set [7] is whole cardiomyocytes and isolated contractile apparatus preparations. The settings on record: cited from earlier work.
Data set [8] can be described thus: OR-1896 plasma concentration, I.V. to oral transition pharmacokinetic study. The class given is in vivo, human. The settings on record: individual patients. From the text:
FIGS. 6A-6W: Pharmacokinetic Data from the Levosimendan I.V. to Oral Transition Study. […] FIGS. 6D-6U show patient OR-1896 plasma concentrations (ng/ml, y-axis) for each patient in the I.V. to oral transition study. The respective patient number is indicated above each graph. FIG. 6V: Individual Patient Change in 6-minute walk distance (6MWD) at Week 6 (y-axis) by OR-1896 plasma concentration (Week 6) (x-axis). FIG. 6W: Individual Patient Change in Heart Rate (Week 0 to Week 6) (y-axis) by OR-1896 plasma concentration (Week 6) (x-axis).

The test system of data set [9] is PDE4. The settings on record: cited from earlier work.
Data set [10] relates to patients with PH-HFpEF. The settings on record: in vivo; cited from earlier work.
Data set [11] relates to HFpEF patients. The settings on record: in vivo; cited from earlier work.
Data set [12] deals with patients with left heart disease. The settings on record: in vivo; cited from earlier work.
The test system of data set [13] is PH-HFpEF patients. The settings on record: in vivo; cited from earlier work.

As to `CCCc1nn(C)c2c(=O)[nH]c(-c3cc(S(=O)(=O)N4CCN(C)CC4)ccc3OCC)nc12` [sildenafil], in [1], the “six-minute walk time, clinical status, or quality of life” value is reported as “failed to improve”. Further, the “change in mPAP” value in data set [2] is on record as “no change”.
In the case of `O=NO` [sodium nitrite], the “peak oxygen consumption during cardiopulmonary exercise (primary endpoint) and secondary endpoints” value in data set [3] was “unable to demonstrate any improvement”.
Turning to `OC[C@H]1O[C@@H](c2ccc(Cl)c(Cc3ccc(O[C@H]4CCOC4)cc3)c2)[C@H](O)[C@@H](O)[C@@H]1O` [empagliflozin], the “change in exercise capacity as measured by 6MWD” value in [4] is listed as “did not demonstrate a material change”.
By half-life is commonly meant the time needed for the level to fall by half in the phase considered. In the case of `CC(=O)Nc1ccc(C2=NNC(=O)C[C@H]2C)cc1` [OR-1896, (R)—N-(4-(4-methyl-6-oxo-1,4,5,6-tetraihydropyridazin-3-yl)phenyl) acetamide], in [5], the half-life is 70 to 80 h. The “potency in inhibition of PDE3 relative to levosimendan” value in data set [6] is on record as “profoundly less potent”. Moreover, the “inotropic effects relative to levosimendan” value in data set [7] is given as “equipotent”. Moreover, in data set [8] (daily 3 mg oral levosimendan), the “OR-1896 Plasma concentration, Week 6” value was 13.0 ng/mL and 8.44 ng/mL and 4.04 ng/mL and 8.73 ng/mL and 29.0 ng/mL and 8.15 ng/mL and 1.97 ng/mL and 13.4 ng/mL and 34.1 ng/mL and 7.72 ng/mL and 22.9 ng/mL and 16.5 ng/mL and 12.7 ng/mL and 21.9 ng/mL and 12.3 ng/mL and 5.15 ng/mL. Further, in data set [8] (oral levosimendan titration), the “OR-1896 Plasma concentration, Week 4” value is 8.86 ng/mL and 6.14 ng/mL and 6.28 ng/mL and 1.39 ng/mL and 12.6 ng/mL and 11.6 ng/mL and 32.9 ng/mL and 7.96 ng/mL and 13.1 ng/mL and 6.50 ng/mL and 5.90 ng/mL. In addition, in data set [8] (oral levosimendan, patients titrated at Week 6), the “OR-1896 Plasma concentration, Week 8” value was 3.47 ng/ml and 38.7 ng/ml and 69.9 ng/ml and 2.93 ng/ml and 25.5 ng/ml (2×) and 10.9 ng/ml. Besides, the “OR-1896 Plasma concentration, Week 0” value in [8] (weekly I.V. levosimendan) was 4.46 ng/mL and 2.22 ng/mL and 0.730 ng/mL and 0.197 ng/mL and 12.2 ng/mL and 3.16 ng/mL and 0.787 ng/mL and 6.89 ng/mL and 36.1 ng/mL and 2.11 ng/mL and 0.00 ng/mL and 6.32 ng/mL and 2.81 ng/mL and 4.86 ng/mL and 3.77 ng/mL and 1.19 ng/mL. Moreover, the “potency in inhibition of PDE4 relative to levosimendan” value in data set [9] is on record as “profoundly less potent”.
As to `COc1ccccc1Oc1c(NS(=O)(=O)c2ccc(C(C)(C)C)cc2)nc(-c2ncccn2)nc1OCCO` [bosentan], in data set [10], the “clinical outcomes versus placebo” value is listed as “worse clinical outcomes” and the “six minute walk test or echocardiographic evaluation of pulmonary hypertension” value is “no improvements”.
Consider `COC(=O)Nc1c(N)nc(-c2nn(Cc3ccccc3F)c3ncc(F)cc23)nc1N` [vericiguat], for which the primary endpoints entry in data set [11] was “no significant changes”.
As to `CCCNS(=O)(=O)Nc1ncnc(OCCOc2ncc(Br)cn2)c1-c1ccc(Br)cc1` [macitentan], in [12], the “hemodynamic parameters (pulmonary vascular resistance, mean pulmonary arterial pressure, pulmonary artery wedge pressure)” value is given as “no change”.
For the molecule `COC(=O)N(C)c1c(N)nc(-c2nn(Cc3ccccc3F)c3ncccc23)nc1N` [riociguat], the “mean pulmonary arterial pressure (primary outcome)” value in data set [13] was “primary outcome was not achieved”.
